Data published in US20070049611A1, “Phosphodiesterase 4 inhibitors” (priority 2005, published 2007).

Tests used:
rats [1] = assay: Passive avoidance in rats, an in vivo test for learning and memory; settings: rat, MK-801 0.1 mg/kg, 24 hours after electric shock, p<0.001
Experimental: The test was performed as previously described (Zhang, H.-T., Crissman, A. M., Dorairaj, N. R., Chandler, L. J., and O'Donnell, J. M., Neuropsychopharmacology, 2000, 23, 198-204.). The apparatus (Model E10-16SC, Coulboum Instruments, Allentown, Pa.) consisted of a two-compartment chamber with an illuminated compartment connected to a darkened compartment by a guillotine door. The floor of the darkened compartment consisted of stainless steel rods through which an electric foot-shock could be delivered from a constant current source. All experimental groups were first habituated to the apparatus the day before the start of the experiment. During the training, the rat (Male Spraque-Dawley (Harlan) weighing 250 to 350 g) was placed in the illuminated compartment facing away from the closed guillotine door for 1 minute before the door was raised. The latency for entering the darkened compartment was recorded. After the rat entered the darkened compartment, the door was closed and a 0.5 mA electric shock was administered for 3 seconds. […] The latency for entering the darkened compartment was recorded for up to 180 seconds, at which time the trial was terminated.
(§1) All data were analyzed by analyses of variance (ANOVA); individual comparisons were made using Kewman-Keuls tests. […]

rats [2] = assay: Radial arm maze task in rats, an in vivo test for learning and memory; settings: rat, MK-801 0.1 mg/kg i.p., p<0.01
Experimental: The test was performed as previously described (Zhang, H.-T., Crissman, A. M., Dorairaj, N. R., Chandler, L. J., and O'Donnell, J. M., Neuropsychopharmacology, 2000, 23, 198-204.). Five days after initial housing, rats (male Spraque-Dawley (Harlan) weighing 250 to 350 g) were placed in the eight-arm radial maze (each arm was 60×10×12 cm high; the maze was elevated 70 cm above the floor) for acclimation for two days. Rats were then placed individually in the center of the maze for 5 minutes with food pellets placed close to the food wells, and then, the next day, in the wells at the end of the arms; 2 sessions a day were conducted. Next, four randomly selected arms were then baited with one pellet of food each. The rat was restricted to the center platform (26 cm in diameter) for 15 seconds and then allowed to move freely throughout the maze until it collected all pellets of food or 10 minutes passed, whichever came first.
Four parameters were recorded: 1) working memory errors, i.e., entries into baited arms that had already been visited during the same trial; 2) reference memory errors, i.e., entries into unbaited arms; 3) total arm entries; and 4) the test duration (seconds), i.e., the time spent in the collection of all the pellets in the maze. […]
as §1

C[C@]12N[C@H](Cc3ccccc31)c1ccccc12 [MK-801]
latency for entering the darkened compartment compared to the vehicle (rats [1]): markedly reduced this latency | frequencies of working and reference memory errors compared to control (rats [2]): increased the frequencies of both working and reference memory errors
